{"source": "paper PMC4403042", "about": "“Atrial-like cardiomyocytes from human pluripotent stem cells are a robust preclinical model for assessing atrial-selective pharmacology” (EMBO Molecular Medicine, 2015)", "key": {"COUP-TFI (NR2F1)": {"tested_on": "COUP-TFI (NR2F1)", "test": "qPCR of COUP-TFI after RA treatment", "format": "cell-based, human", "details": "day 31 GFP+ CMs, RA-treated vs control differentiation", "protocol": "In order to determine the dynamics of COUP-TF expression following RA treatment, expression levels of both COUP-TFI and II were analyzed by qPCR at different time points and compared to control EBs. COUP-TFs were induced within 24 h of treatment with RA followed by dramatic increase in expression thereafter. […] The expression of COUP-TFs was maintained in differentiated CMs at day 31. COUP-TFI was expressed 20-fold higher, and COUP-TFII was enriched over 30-fold in hESC-atrial CMs compared to hESC-ventricular CMs (Fig4A and B). Antibodies selectively binding to COUP-TFI or COUP-TFII were used to verify the expression of these proteins. […]\natRA (Sigma) was diluted in DMSO to make a solution of 50 mmol/L which was further diluted in distilled water to have a stock solution of 0.0001 mol/L. atRA was used in a final concentration of 1 µmol/L in BPEL medium to direct atrial […]\nGene expression was determined on the HumanHT-12 v4 Expression BeadChip at ServiceXS, Leiden, The Netherlands. […]\nFor assessing gene expression by qPCR, cDNA was synthesized from approximately 1µ g of RNA obtained from three independent differentiations (iScript cDNA Synthesis Kit, BIO-RAD). Target identification was performed using SYBR Green (Applied Biosystems, Life technologies) and detected by CFX96 Real-Time PCR system (Bio-Rad). […]"}, "embryoid bodies (EBs)": {"tested_on": "embryoid bodies (EBs)", "test": "Beating frequency of embryoid bodies from CT or RA differentiations", "format": "cell-based, human", "details": "RA-treated EBs, N=16, 37 degrees; control 45/min", "source_text": "EMBO Molecular Medicine Peer Review Process File - EMM-2014-04757\nPlease, discuss this finding.\nThe reviewer raises an important point and we have now discussed this finding on page-17 of the\nthe atrial-selective ion channel gene, KCNA5. These experiments also established that KCNJ3 and\nKCNJ5 are regulated by COUP-TFII.\nKCNJ3 and KCNJ5 in atrial CMs. Future studies aimed at dissecting the roles of COUP-TFI and\nCOUP-TFII during atrial differentiation are required to understand whether these genes act in\nIt also remains to be tested if\nloss of COUP-TFI can be rescued by COUP-TFII and vice versa. However, since myocardial\nablation of COUP-TFII in the mouse results in a severe phenotype (25), it seems unlikely that\nCOUP-TFI can account for loss of COUP-TFII. Nonetheless, it is likely that deletion of both COUP-\nTFI and COUP-TFII might result in a more severe phenotype”.\nOn page 5 a Fig S1G is introduced; this should be Fig S1F\nThis was an error, which has now been corrected.\nFig S2 is not introduced in the main text.\nWe apologize for the missing text describing Fig. S2. This is now included on page 6 of the revised\nFig 5 panel G label must be corrected. […]\na platform maintained at 37 degrees. We determined the beating frequency of N=16 EBs each. […]\nrates recorded were 45/min in control EBs and 60/min in RA-treated EBs (Error bars represent […]"}}}
{"smiles": "CC1=C(/C=C/C(C)=C/C=C/C(C)=C/C(=O)O)C(C)(C)CCC1", "note": "[RA, all-trans retinoic acid]", "values": [{"measurement": "COUP-TFI mRNA, hESC-atrial vs hESC-ventricular CMs", "setting": "COUP-TFI (NR2F1)", "value": 20, "unit": "fold"}, {"measurement": "beating frequency of EBs", "setting": "embryoid bodies (EBs)", "value": 60, "unit": "min⁻¹"}]}
